{"source": "paper PMC5641551", "about": "“Chemical Proteomics for Target Discovery of Head-to-Tail Cyclized Mini-Proteins” (Frontiers in Chemistry, 2017)", "key": {"[1]": {"tested_on": "14-3-3 proteins in living Jurkat cells", "test": "photo-affinity pull down on living Jurkat cells with competitor", "assay_type": "binding, human", "conditions": "2 h incubation with bait, [T20K]kB1 competitor at 60-fold molar excess, UV irradiation", "experimental": "Biotin-LC-LC-labeled (ThermoFisher) peptides (1–5 nmoles) with or without (non-biotinylated) competitor ([…]) for 2 h at 4°C in the presence of protease inhibitors. UV-activation of photo-crosslinking moiety benzophenone was induced by irradiation at 360 nm on ice for 15 min (Stratalinker, Stratagene, CA, United States). Streptavidin-coated magnetic nanobeads 2–4 mg (1–3-fold excess of binding capacity to applied biotin-bait) facilitated the precipitation (Hyglos, Bernried, Germany). The binding could proceed overnight at 4°C. The supernatants were removed and the beads were washed several times, unless stated otherwise and used for SDS-PAGE, unless stated otherwise. For cyclotide experiments the following peptides were used: biotinylated [T20K]kB1 or [T20K,W23Bpa]kB1 as bait and [T20K]kB1, [T20K,W23Bpa]kB1, or R18 ([…]; Sigma Aldrich), a 14-3-3 family specific peptide inhibitor, as competitors. Generally, beads were washed with lysis buffer containing 1% (v/v) Triton-X100 and 0.2% SDS (w/v) and protease inhibitor cocktail for 3 h followed by wash with 0.12 mM phosphate buffered high saline (PBhS) pH 7.4, 1 M NaCl and 12 mM KCl, 1 mM EDTA for 2 h. Lastly, the beads were washed three times for 5 min with lysis buffer. […] Peptide-protein co-precipitations of 14-3-3 proteins and cyclotides were analyzed with GST-tagged 14-3-3β protein (0.25 μg; EnzoLifeSciences, New York, United States). […]"}, "IL-2 in T-lymphocytes": {"tested_on": "IL-2 in T-lymphocytes", "conditions": "reference not given; cited from earlier work", "excerpt": "14-3-3s are ubiquitous adaptor proteins that are involved in cell signaling, cell cycle progression and apoptosis as well as protein-protein interaction and cellular transport (Aghazadeh and Papadopoulos, [2016]). The 14-3-3 family is often described as a chimera, since knockout of single isoforms may remain without or with minor phenotypic changes due to functional rescue through the recruitment of other family members. […] Many tumor suppressors or oncogenes are regulated by 14-3- ..."}}, "note": "No end group written: not given here."}
{"sequence": "CGETCVGGTCNTPGCKCSWPVCTRNGLPV (also: bicyclic or more (positions not given here)) [[T20K]kB1, synthetic cyclotide drug candidate, Thr20 to Lys mutant of kalata B1]", "values": [{"measurement": "retention of labeled 14-3-3 proteins on affinity beads in presence of competitor", "setting": "[1]", "value": "competitively reduced"}, {"measurement": "regulatory cytokines such as IL-2 in T-lymphocytes of treated animals", "setting": "IL-2 in T-lymphocytes", "value": "significantly downregulated"}]}
